From publication PMC11724075, “Small-molecule-induced ERBB4 activation to treat heart failure” (Nature Communications, 2025)
Where “and” joins values, the source holds several entries; their conditions need not be identical. Equal values may be shown once.

What was measured:
[1] = test system: HCFs; test: In vitro collagen expression: COL3A1 mRNA in HCFs stimulated with TGF-β1; type: cell-based, human; settings: for COL3A1 mRNA expression (FC): TGF-β1 10 ng/mL, 24 h, single replicates
Method: HCFs were seeded at a density of 1.5 ×10^5 cells/well in doxycycline-free medium in 12-well plates (Greiner Bio-One, 665180) and incubated overnight. […] Compounds were pre-incubated for 10 min before addition of TGF-β1.
RNA was extracted using Nucleospin RNA XS (Macherey-Nagel, 740902.50) according to the manufacturer’s instructions. For cDNA synthesis, total RNA was added to a mixture containing buffer with random hexamers and reverse transcriptase enzyme (TaqMan reverse transcription reagents, Applied biosystems, N8080234) after which samples were incubated for 10 min at 25 °C, 30 min at 48 °C, and 5 min at 95 °C. RT-qPCR was performed on QuantStudio 3 Real-time PCR system (Applied Biosystems) using Taqman Universal PCR Master Mix (Applied Biosystems, 4304437) and Taqman primers according to the manufacturer’s instructions. Settings were as follows: […] followed by 10 min at 95 °C, 40 cycles (45 cycles for ERBB4) of denaturation at 95 °C for 15 s, and 1 min at 60 °C. All reactions were run in duplicate, and all data were normalized against housekeeping genes glyceraldehyde-3-phosphate dehydrogenase (GAPDH), beta-actin (ACTB), or phosphoglycerate kinase 1 (PGK1). Expression levels were calculated using the comparative cycle method and expressed as fold change (FC) to appropriate controls. The following TaqMan primers were used (Thermo Fisher Scientific): GAPDH (Hs02758991_g1, Mm99999915_g1 and Rn01775763_g1), PGK1 (Hs99999906_m1), ID2 (Hs04187239_m1), BMPR1B (Hs01010965_m1), CACNA2D4 (Hs00297782_m1), DUSP2 (Hs00358879_m1), NR4A1 (Hs00374226_m1), SGK1 (Hs00178612_m1), COL1A1 (Mm00801666_g1), COL3A1 (Hs00943809_m1 and Mm00802305_g1), ERBB4 (Hs00955525_m1 and Rn00572447_m1), ACTB (Mm02619580_g1) and ANP (Mm01255747_g1).

[2] = test system: ERK1/2 phosphorylation (pERK1/2/ERK1/2); test: Western blot pERK1/2/ERK1/2 in iAMs; type: cell-based, rat; settings: for pErk/Erk, relative to vehicle of the same time point: iAMs, single replicates; for phosphorylation of ERK1/2 in iAMs (in words): NRG1 10 nM or EF-1 32 µM
Method: Hearts of the aforementioned transgenic mice were removed immediately after the animals had been killed. Cells and heart tissue were collected in RIPA lysis buffer (Thermo Fisher Scientific, 89900) supplemented with protease inhibitors (Merck, 11836153001) and phosphatase inhibitors (Merck, 4906845001) and the lysates were centrifuged at 14,000 × g for 10 min. The supernatants were collected, supplemented with sample buffer, and incubated at 95 °C for 5 min. Protein quantification was done with Pierce^TM BCA Protein Assay Kits (Thermo Fisher, 23227) according to the manufacturer’s instructions. Equal protein amounts of clarified lysates (20 µg) were subsequently separated by sodium dodecyl sulfate (SDS) polyacrylamide gel electrophoresis (165 V, 400 mA, 60 min) and transferred onto polyvinylidene fluoride membranes by electroblotting (100 V, 400 mA, 90 min). Next, the membranes were incubated for 1 h with Li-Cor blocking buffer (Li-Cor, 927-60001) at RT in Tris-buffered saline (TBS), supplemented with 0.1% Tween (BIO-RAD, 1706531). Next, primary antibodies were added (see below and Table 1a) in Li-Cor blocking buffer supplemented with 0.1% Tween, and the membranes were incubated overnight at 4 °C on a shaker. Following washing with TBS-0.1% Tween, the membranes were incubated for 1 h at RT with corresponding IRDye-conjugated secondary antibodies (See below and Table 1b) in Li-Cor blocking buffer supplemented with […] and 0.1% Tween. The membrane was visualized with the Odessey imaging system.

Compound: O=C(NC1CC1)C(Sc1nc2ccccc2c(=O)n1C1CCCC1)c1ccccc1 (stereo not drawn) [EF-1]
- COL3A1 mRNA expression (FC) ([1]; EF-1 + SiERBB4, 1e-6 M): 1
- COL3A1 mRNA expression (FC) ([1]; EF-1 + SiERBB4, 4e-6 M): 0.5373 and 0.7163 and 0.5917 and 0.6311 and 0.7899 and 0.8499
- COL3A1 mRNA expression (FC) ([1]; EF-1 + SiERBB4, 8e-6 M): 0.8243 and 0.8469 and 0.7111 and 0.7439 and 0.7398 and 0.6183
- COL3A1 mRNA expression (FC) ([1]; EF-1 + SiERBB4, 1.6e-5 M): 0.5202 and 0.6505 and 0.7517 and 0.6477 and 0.5129
- COL3A1 mRNA expression (FC) ([1]; EF-1 + SiERBB4, 3.2e-5 M): 0.7721 and 0.6715 and 0.5121 and 0.7108 and 0.5403 and 0.6885
- COL3A1 mRNA expression (FC) ([1]; EF-1 + SiScr, 1e-6 M): 0.9505 and 1.0731 and 0.9765
- COL3A1 mRNA expression (FC) ([1]; EF-1 + SiScr, 4e-6 M): 0.3565 and 0.5152 and 0.404
- COL3A1 mRNA expression (FC) ([1]; EF-1 + SiScr, 8e-6 M): 0.4855 and 0.3848 and 0.5526
- COL3A1 mRNA expression (FC) ([1]; EF-1 + SiScr, 1.6e-5 M): 0.2758 and 0.3929 and 0.4764
- COL3A1 mRNA expression (FC) ([1]; EF-1 + SiScr, 3.2e-5 M): 0.4172 and 0.4035 and 0.5599
- decrease of TGF-β1-induced COL3A1 mRNA levels ([1]; HCFs, dose-dependent, 4–32 µM): up to 50%
- time of peak levels of ERK1/2 phosphorylation ([2]; EF-1): 15 min
- pErk/Erk, relative to vehicle of the same time point ([2]; EF-1 32 µM, 0 minutes): 1.078 and 1.057 and 1.137 and 0.8985
- pErk/Erk, relative to vehicle of the same time point ([2]; EF-1 32 µM, 15 minutes): 1.66 and 1.416 and 1.274 and 1.578
- pErk/Erk, relative to vehicle of the same time point ([2]; EF-1 32 µM, 60 minutes): 1.162 and 1.018 and 1.18 and 0.9894
- pErk/Erk, relative to vehicle of the same time point ([2]; EF-1 32 µM, 120 minutes): 0.9869 and 1.003 and 0.9414 and 0.8187
- pErk/Erk, relative to vehicle of the same time point ([2]; EF-1 32 µM, 240 minutes): 0.9968 and 1.428 and 1.0991 and 0.9249
- phosphorylation of ERK1/2 in iAMs (in words) [2]: transient phosphorylation of ERK1/2

Compound: Cc1sc2nc(SC(C)C(=O)NCc3ccc4c(c3)OCO4)n(-c3ccccc3)c(=O)c2c1C (stereo not drawn) [NA-1]
- effect on TGF-β1-induced COL3A1 expression in HCFs (in words) ([1]; 4–32 µM): did not affect COL3A1 expression
- COL3A1 mRNA expression (FC) ([1]; NA-1, 1e-6 M): 1
- COL3A1 mRNA expression (FC) ([1]; NA-1, 4e-6 M): 0.6694 and 0.8324 and 0.8909
- COL3A1 mRNA expression (FC) ([1]; NA-1, 8e-6 M): 0.9443 and 0.7317 and 0.6882
- COL3A1 mRNA expression (FC) ([1]; NA-1, 1.6e-5 M): 0.7688 and 0.6597 and 0.5112
- COL3A1 mRNA expression (FC) ([1]; NA-1, 3.2e-5 M): 0.7866 and 0.7983 and 0.6723

Compound: neuregulin-1 [NRG1]
- phosphorylation of ERK1/2 in iAMs (in words) [2]: time-dependent phosphorylation of ERK1/2
- pErk/Erk, relative to vehicle of the same time point ([2]; NRG1 10 nM, 0 minutes): 0.7394 and 1.087 and 0.6444
- pErk/Erk, relative to vehicle of the same time point ([2]; NRG1 10 nM, 15 minutes): 2.343 and 1.9112 and 1.767
- pErk/Erk, relative to vehicle of the same time point ([2]; NRG1 10 nM, 60 minutes): 3.329 and 2.139 and 1.769
- pErk/Erk, relative to vehicle of the same time point ([2]; NRG1 10 nM, 120 minutes): 1.461 and 2.784 and 4.448
- pErk/Erk, relative to vehicle of the same time point ([2]; NRG1 10 nM, 240 minutes): 3.3773 and 3.181
